pEC50: −log10 of the molar value.

This experiment addresses human α7 nAChR (Homo sapiens (Human), UniProt P36544). Kind of experiment: Automated patch-clamp electrophysiology functional assay (Assay A). It counts as cell-based. The note with it: IonFlux HT whole-cell population patch, HEK cells expressing human α7/RIC-3, 40 μM acetylcholine. The procedure:
The α7 nAChR positive allosteric modulator (PAM) activity of the present compounds may be tested using assays known in the art. The α7 nAChR PAMs described herein have activities in an automated patch-clamp electrophysiology functional assay as described in the examples. The assay was performed using the IonFlux HT in a whole-cell, population patch configuration. See Golden et al. Assay Drug Dev. Technol. (2011) 9:608-619. The compounds were assessed for their ability to modulate the function of the human α7 nAChR stably expressed in a HEK cell line both in the presence, and in the absence of the natural α7 agonist acetylcholine. By performing a series of such measurements at different concentrations, the effective concentration of the α7 nAChR PAMs (EC50) was determined. See Spencer et al. Assay Drug Dev. Technol. (2012) 10:313-324.
Direct activation of α7 (agonism), and potentiation of acetylcholine-evoked α7 currents was determined as follows:
Automated Patch-Clamp Electrophysiology Functional Assay (Assay A)
Automated patch-clamp electrophysiology was performed using the IonFluxHT (Fluxion Biosciences Inc., San Francisco, CA) in the whole-cell, population patch configuration. Test compounds were assessed for their ability to modulate the function of the α7 nicotinic acetylcholine receptor both in the presence, and in the absence of the natural α7 agonist acetylcholine. A HEK cell line stably expressing both human RIC-3 and human α7 (PrecisION hnAChR α7/RIC-3, Eurofins Pharma, St. Charles, MO) was cultured in 175 cm^2 triple-layer tissue culture flasks to no more than 90% confluency in DMEM/F-12 growth media supplemented with 10% heat-inactivated fetal bovine serum, 1% non-essential amino acids, 0.625 μg/mL Puromycin, and 400 μg/mL Geneticin. Immediately prior to assay, cells were detached by first aspirating growth media, rinsing with Dulbecco's phosphate buffered saline, and then adding 10 mL of Accutase (Innovative Cell Technologies, San Diego, CA) to the flask and then incubating at 37° C. for 5 minutes. Detached cells were then recovered by the addition of 40 mL of CHO-serum-free media supplemented with 25 mM HEPES, and rocked gently in a 50 mL conical tube for 20 minutes prior to patch-clamp assay. After recovery, cells were pelleted by centrifugation at 1,000 RPM for 1 minute in a compact bench top centrifuge; recovery media was aspirated and cells were resuspended in external recording solution (150 mM NaCl, 5 mM KCl, 2 mM CaCl2), 1 mM MgCl2, 10 mM HEPES, 12 mM dextrose) to a density of 5.0×10^6 cells/mL. The cell suspension was added to the cell inlet wells on an IonFlux HT population patch plate which had previously been rinsed and primed with deionized H2O. Test compounds were serially diluted in DMSO and then resuspended to the final test concentration in external recording solution, with, or without 40 μM acetylcholine added to the external recording solution; test compounds were then transferred to the IonFlux HT population patch plate. Internal recording solution (110 mM TrisPO4, 28 mM TrisBase, 0.1 mM CaCl2), 2 mM MgCl2, 11 mM EGTA, 4 mM MgATP) was added to the internal recording solution inlet wells on the IonFlux HT patch plate previously loaded with cells and test compounds, and the plate loaded into the IonFlux HT instrument. A protocol was executed on the IonFlux HT to trap the cells, break into the cells, and establish the whole-cell recording configuration; cells were voltage-clamped at a holding potential of −60 mV for the duration of the experiment, all experiments were conducted at room temperature, and the IonFlux HT injection pressure was 8 psi for solution applications. Upon establishing the whole-cell configuration, external recording solution was perfused into the recording chambers for 120 seconds and then 40 μM acetylcholine was applied for 1 second and immediately washed off with external recording solution for 60 seconds. […]

Sequence of human α7 nAChR (P36544 23-502): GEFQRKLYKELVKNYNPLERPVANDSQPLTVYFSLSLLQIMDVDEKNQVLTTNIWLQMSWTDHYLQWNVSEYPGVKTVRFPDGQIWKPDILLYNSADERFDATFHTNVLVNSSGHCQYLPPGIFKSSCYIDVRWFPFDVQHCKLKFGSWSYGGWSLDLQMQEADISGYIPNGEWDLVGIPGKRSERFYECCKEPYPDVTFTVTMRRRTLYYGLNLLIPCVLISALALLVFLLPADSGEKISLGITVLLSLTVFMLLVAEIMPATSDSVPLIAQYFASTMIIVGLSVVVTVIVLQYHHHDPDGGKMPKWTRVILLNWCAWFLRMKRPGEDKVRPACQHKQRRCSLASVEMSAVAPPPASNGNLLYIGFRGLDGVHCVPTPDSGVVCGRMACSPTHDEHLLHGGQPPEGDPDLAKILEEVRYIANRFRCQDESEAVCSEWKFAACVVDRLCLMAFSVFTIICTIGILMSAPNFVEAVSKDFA

Consider `O=C(NCc1nc(-c2ccccc2)no1)C1C2Oc3ccc(F)cc3C21` (stereo not drawn) [Example 7, exo-5-Fluoro-N-[(3-phenyl-1,2,4-oxadiazol-5-yl)methyl]-1a,6b-dihydro-1H-cyclopropa[b][1]benzofuran-1-carboxamide], for which the pEC50 is 7.30 (electrophysiology EC50 values) and no less than 7.00 (potency class).
As for `CC(NC(=O)C1C2Oc3ccc(F)cc3C21)c1cc2ccccc2o1` (stereo not drawn) [Example C20, exo-N-[1-(1-benzofuran-2-yl)ethyl]-5-fluoro-1a,6b-dihydro-1H-cyclopropa[b][1]benzofuran-1-carboxamide], the pEC50 is, setting by setting: (electrophysiology EC50 values) 5.64; (potency class) 5.30 to 6.30.
The corresponding values for `CCOc1ccc([C@H](COC)NC(=O)C2C3Oc4ccccc4C32)cc1` (stereo partly drawn) [Example B2, exo-N-[(1R)-1-(4-ethoxyphenyl)-2-methoxyethyl]-1a,6b-dihydro-1H-cyclopropa[b][1]benzofuran-1-carboxamide] are 5.82 and 5.30 to 6.30.
Consider `COc1cc(C2(NC(=O)C3C4COc5ccccc5C43)CC2)ccn1` (stereo not drawn) [Example A10, exo-N-[1-(2-methoxypyridin-4-yl)cyclopropyl]-1,1a,2,7b-tetrahydrocyclopropa[c][1]benzopyran-1-carboxamide], for which the pEC50 (potency class) is 5.30 to 6.30.
As for `O=C(N[C@@H]1CCc2c(O)cccc21)C1C2Oc3ccc(F)cc3C21` (mixture of isomers) [Example C10, exo-5-fluoro-N-(4-hydroxy-2,3-dihydro-1H-inden-1-yl)-1a,6b-dihydro-1H-cyclopropa[b][1]benzofuran-1-carboxamide], the negative logarithm of the EC50 (pEC50) reads like this: (electrophysiology EC50 values) 5.80; (potency class) 5.30 to 6.30.
Turning to `CCOc1ccc([C@H](COC)NC(=O)C2C3Oc4ccc(-c5cncnc5)cc4C32)cc1` (stereo partly drawn) [Example B11, exo-N-[(1R)-1-(4-ethoxyphenyl)-2-methoxyethyl]-5-(pyrimidin-5-yl)-1a,6b-dihydro-1H-cyclopropa[b][1]benzofuran-1-carboxamide], the negative-log EC50 (pEC50) (potency class) was 4.30 to 5.30.
Consider `CCOc1ccc([C@@H](NC(=O)C2C3Oc4ccc(F)cc4C32)C(F)F)cn1` (stereo partly drawn) [Example C9, exo-N-[(1R)-1-(6-ethoxypyridin-3-yl)-2,2-difluoroethyl]-5-fluoro-1a,6b-dihydro-1H-cyclopropa[b][1]benzofuran-1-carboxamide], for which the pEC50 reads like this: (electrophysiology EC50 values) 5.96; (potency class) 5.30 to 6.30.
With `CC(C)(NC(=O)C1C2COc3ccc(F)cc3C21)c1cccc(Cl)c1` (stereo not drawn) [Example A18, exo-N-[2-(3-chlorophenyl)propan-2-yl]-6-fluoro-1,1a,2,7b-tetrahydrocyclopropa[c][1]benzopyran-1-carboxamide], the negative logarithm of the EC50 (pEC50) runs as follows: (electrophysiology EC50 values) 5.60; (potency class) 5.30 to 6.30.
The corresponding values for `CC(NC(=O)C1C2Oc3ccc(F)cc3C21)c1cccs1` (stereo not drawn) [Example C12, exo-5-fluoro-N-[1-(thiophen-2-yl)ethyl]-1a,6b-dihydro-1H-cyclopropa[b][1]benzofuran-1-carboxamide] are 5.92 and 5.30 to 6.30.
With `O=C(NCc1ccccc1OCC1CC1)C1C2Oc3ccc(F)cc3C21` (stereo not drawn) [Example C40, exo-N-{[2-(cyclopropylmethoxy)phenyl]methyl}-5-fluoro-1a,6b-dihydro-1H-cyclopropa[b][1]benzofuran-1-carboxamide], the negative logarithm of the EC50 (pEC50) is, setting by setting: (electrophysiology EC50 values) 6.21; (potency class) 5.30 to 6.30.
For the molecule `CCOc1ccc([C@H](COC)NC(=O)C2C3Cc4ccccc4C32)cc1` (single isomer, unassigned) [Example 1], the pEC50 reads like this: (electrophysiology EC50 values) 6.12; (potency class) 5.30 to 6.30.
For the molecule `CCOc1ccc([C@H](COC)NC(=O)C2C3Oc4ccc(C#N)cc4C32)cc1` (stereo partly drawn) [Example B14, exo-5-cyano-N-[(1R)-1-(4-ethoxyphenyl)-2-methoxyethyl]-1a,6b-dihydro-1H-cyclopropa[b][1]benzofuran-1-carboxamide], the pEC50 (potency class) is 5.30 to 6.30.
Turning to `O=C(N[C@@H](CCO)c1ccc(F)cc1)C1C2Oc3ccc(F)cc3C21` (stereo partly drawn) [Example C30, exo-5-fluoro-N-[(1S)-1-(4-fluorophenyl)-3-hydroxypropyl]-1a,6b-dihydro-1H-cyclopropa[b][1]benzofuran-1-carboxamide], the pEC50 by setting is: (electrophysiology EC50 values) 5.55; (potency class) 5.30 to 6.30.
`CCOc1ccc([C@H](COC)NC(=O)C2C3Oc4ccc(F)cc4C32)cc1` (stereo partly drawn) [Example B4, exo-N-[(1R)-1-(4-ethoxyphenyl)-2-methoxyethyl]-5-fluoro-1a,6b-dihydro-1H-cyclopropa[b][1]benzofuran-1-carboxamide]: the pEC50 was 6.03 (electrophysiology EC50 values) and 5.30 to 6.30 (potency class).
As for `O=C(NCc1cc(F)ccc1F)C1C2Oc3ccc(F)cc3C21` (stereo not drawn) [Example C22, exo-N-[(2,5-difluorophenyl)methyl]-5-fluoro-1a,6b-dihydro-1H-cyclopropa[b][1]benzofuran-1-carboxamide], the negative logarithm of the EC50 (pEC50) (electrophysiology EC50 values) is 5.47 and the pEC50 (potency class) is 5.30 to 6.30.
For `CCOc1ccc([C@H](COC)NC(=O)C2C3Oc4c(Br)cccc4C32)cc1` (stereo partly drawn) [Example B8, exo-3-bromo-N-[(1R)-1-(4-ethoxyphenyl)-2-methoxyethyl]-1a,6b-dihydro-1H-cyclopropa[b][1]benzofuran-1-carboxamide], in that order: 6.55 and 6.30 to 7.00.
In the case of `O=C(NC1(c2ccc(F)cc2)COC1)C1C2COc3ccc(F)cc3C21` (stereo not drawn) [Example A2, exo-6-fluoro-N-[3-(4-fluorophenyl)oxetan-3-yl]-1,1a,2,7b-tetrahydrocyclopropa[c][1]benzopyran-1-carboxamide], the negative logarithm of the EC50 (pEC50) was 5.92 (electrophysiology EC50 values) and 5.30 to 6.30 (potency class).
Regarding `O=C(NCc1noc(-c2ccccc2)n1)C1C2Oc3ccc(F)cc3C21` (stereo not drawn) [Example C49, exo-5-fluoro-N-[(5-phenyl-1,2,4-oxadiazol-3-yl)methyl]-1a,6b-dihydro-1H-cyclopropa[b][1]benzofuran-1-carboxamide], the pEC50 reads like this: (electrophysiology EC50 values) 6.57; (potency class) 6.30 to 7.00.
With `COc1cc(CNC(=O)C2C3Oc4ccc(F)cc4C32)on1` (stereo not drawn) [Example C45, exo-5-fluoro-N-[(3-methoxy-1,2-oxazol-5-yl)methyl]-1a,6b-dihydro-1H-cyclopropa[b][1]benzofuran-1-carboxamide], under “potency class”, the negative-log EC50 (pEC50) is 4.30 to 5.30.
`CC(NC(=O)C1C2Oc3ccc(F)cc3C21)c1ccno1` (stereo not drawn) [Example C43, exo-5-fluoro-N-[1-(1,2-oxazol-5-yl)ethyl]-1a,6b-dihydro-1H-cyclopropa[b][1]benzofuran-1-carboxamide]: the negative-log EC50 (pEC50) reads like this: (electrophysiology EC50 values) 5.72; (potency class) 5.30 to 6.30.
For `O=C(NC1(c2ccc(F)cc2)CC(O)C1)C1C2COc3ccccc3C21` (stereo not drawn) [Example A5, exo-N-[1-(4-fluorophenyl)-3-hydroxycyclobutyl]-1,1a,2,7b-tetrahydrocyclopropa[c][1]benzopyran-1-carboxamide], the negative-log EC50 (pEC50) runs as follows: (electrophysiology EC50 values) 5.34; (potency class) 5.30 to 6.30.
The corresponding values for `O=C(NCc1cc(-c2ccccc2)no1)C1C2Oc3ccc(F)cc3C21` (stereo not drawn) [Example C32, exo-5-fluoro-N-[(3-phenyl-1,2-oxazol-5-yl)methyl]-1a,6b-dihydro-1H-cyclopropa[b][1]benzofuran-1-carboxamide] are 6.72 and 6.30 to 7.00.
For `O=C(NCc1cccc(N2CCCC2)n1)C1C2Oc3ccc(F)cc3C21` (stereo not drawn) [Example C18, 2-{[(exo-5-fluoro-1a,6b-dihydro-1H-cyclopropa[b][1]benzofuran-1-carbonyl)amino]methyl}-6-(pyrrolidin-1-yl)pyridine], the negative-log EC50 (pEC50) is, setting by setting: (electrophysiology EC50 values) 5.85; (potency class) 5.30 to 6.30.

Values taken from US20240368109A1, “ALLOSTERIC MODULATORS OF NICOTINIC ACETYLCHOLINE RECEPTORS” (MERCK SHARP & DOHME LLC, priority 2021, published 2024).
